Assay results from publication PMC9926489, “Chemical Optimization of Selective Pseudomonas aeruginosa LasB Elastase Inhibitors and Their Impact on LasB-Mediated Activation of IL-1β in Cellular and Animal Infection Models” (ACS Infectious Diseases, 2023).

Columns and labels:
purified LasB = target: T1, purified LasB (Pseudomonas aeruginosa, UniProt P14756); test: LasB inhibition, fluorimetric Abz-AGLA-Nba hydrolysis assay with purified LasB; format: biochemical
T1 construct: The mature LasB protein is a 33 kDa metalloprotease, which is secreted from P. aeruginosa; host or cells: P. aeruginosa PAO1 (native secretion, culture supernatant)
T1 sequence (P14756 198-498): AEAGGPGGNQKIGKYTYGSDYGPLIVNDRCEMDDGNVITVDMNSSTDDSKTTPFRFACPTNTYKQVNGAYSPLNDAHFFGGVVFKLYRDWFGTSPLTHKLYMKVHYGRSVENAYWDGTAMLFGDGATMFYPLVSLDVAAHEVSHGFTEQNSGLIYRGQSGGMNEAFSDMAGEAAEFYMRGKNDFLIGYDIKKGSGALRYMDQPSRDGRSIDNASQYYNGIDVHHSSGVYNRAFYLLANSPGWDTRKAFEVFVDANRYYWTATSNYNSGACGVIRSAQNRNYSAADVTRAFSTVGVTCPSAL
Excerpt: (§1) This was chosen as the starting point for a medicinal chemistry-driven lead optimization program aiming to improve potency and solubility whilst retaining selectivity against host metalloenzymes. All synthesized compounds were initially assessed in a fluorimetric assay measuring hydrolysis of a fluorogenic substrate Abz-Ala-Gly-Leu-Ala-4-nitrobenzylamide (Abz-AGLA-Nba) by purified LasB and IC50 values determined (Tables 1 and 2). Inhibition of elastin hydrolytic activity was confirmed using an orthogonal assay measuring hydrolysis of Elastin Congo Red (ECR) complex by LasB prepared directly from a P. aeruginosa culture supernatant (Tables 1 and 2). […] Aqueous solubility was determined for most compounds (Tables 1 and 2).
Native LasB protein was purified from culture supernatants of P. aeruginosa strain PAO1 (Charles River Laboratories, U.K.). Briefly, the sample was concentrated by ultrafiltration and the protein was purified by chromatography using an anion exchange (pH 8.5) step followed by gel filtration. This procedure yielded an enzyme preparation (0.8 mg/mL) of >98% purity. The enzyme was stored at −80 °C.
(§2) LasB inhibition assays were performed using purified LasB enzyme (1 ng/well) for compound screening or using culture supernatants (prepared as described in the ECR assay) for testing LasB variants. Hydrolysis of the fluorogenic peptide substrate 2-aminobenzoyl-Ala-Gly-Leu-Ala-4-nitrobenzylamide (Abz-AGLA-Nba; Peptide International) in 50 mM Tris-HCl (pH 7.4), supplemented with 2.5 mM CaCl2 was followed using an Envision microplate reader (PerkinElmer) at 315 nm excitation and 430 nm emission. For screening of lead compounds, assays were performed in the presence of 0.01% Triton X-100 with a range of inhibitor concentrations from 0.003 to 3.2 μM. IC50 values were determined from Hill plots using Dotmatics Studies ELN software. For the mechanism of inhibition studies, hydrolysis rates were measured in the presence of variable concentrations of substrate and inhibitor, and the inhibition constant (Ki) was determined using Dixon plot analysis.[31]

[1] = target: T2, LasB (P. aeruginosa PAO1 culture supernatant) (Pseudomonas aeruginosa, UniProt P14756); test: Elastin Congo Red (ECR) assay, elastin hydrolysis by dialyzed PAO1 culture supernatant; format: biochemical; conditions: 25 μM inhibitor
T2 construct: The mature LasB protein is a 33 kDa metalloprotease, which is secreted from P. aeruginosa; endogenous in cells; host or cells: P. aeruginosa PAO1 culture supernatant, filtered and dialyzed
T2 sequence (P14756 198-498): as above
Excerpt: as §1
Inhibition of elastin hydrolysis by native LasB, secreted in P. aeruginosa culture supernatants, was measured using the Elastin Congo Red (ECR) assay. Culture supernatants from P. aeruginosa strain PAO1, grown in LB medium at 37 °C for 24 h, were filtered and dialyzed against 50 mM Tris-HCl pH 7.4, 2.5 mM CaCl2 solution at 4 °C and supplemented with 0.01%Triton X-100, 10 mg/mL ECR (Sigma) and 25 μM inhibitor compounds. The reaction mixture was incubated for 16 h at 37 °C with shaking before centrifugation and recovery of the supernatant and measurement of solubilized congo red by absorbance (OD495) using an EnSight multimode plate reader (PerkinElmer).

MMP-13 = MMP-13 (Homo sapiens, UniProt P45452); test: MMP-13 selectivity assay; format: biochemical; conditions: human MMP-13
Procedure: (§3) Selectivity of compound inhibition was evaluated against other proteases at concentrations between 0.4 and 200 μM. Activity against rabbit angiotensin-converting enzyme (ACE, Sigma) was assessed using 10 μM fluorogenic substrate Abz-Phe-Arg-Lys(Dnp)-P (Enzo Life Sciences) in 100 mM Tris-HCl pH 7, 50 mM NaCl, 10 μM Zn SO4. Activity against human matrix metalloproteases (MMP)-2 and MMP-9 was assessed in 50 mM HEPES pH 7.5, 10 mM CaCl2, 0.01% Triton X-100 using 4 μM fluorogenic substrate Mca-Pro-Leu-Gly-Leu-Dpa-Ala-Arg-NH2 (Enzo Life Sciences). Activity against MMP-1 and MMP-13 was assessed in 25 mM HEPES pH 7.5, 100 mM NaCl, 100 mM CaCl2, 0.0005% Brij using 7.5 μM fluorogenic substrate Mca-Lys-Pro-Leu-Gly-Leu-Dpa-Ala-Arg-NH2 (Sigma) for MMP-1 and 1.25 μM fluorogenic substrate Mca-Pro-Cha-Gly-Nva-His-Ala-Dpa-NH2 (Millipore) for MMP-13. Activity against human neutrophil elastase (HNE, Enzo Life Sciences) was assessed in 100 mM HEPES pH 7.5, 500 mM NaCl, 0.01% of Triton X-100 using 100 μM fluorogenic substrate MeOSuc-AAPV-AMC (Enzo Life Sciences).

[2] = target: T3, human neutrophil elastase (HNE) (Homo sapiens, UniProt P08246); test: HNE selectivity assay; format: biochemical
T3 construct: purchased Enzo Life Sciences
T3 sequence (P08246 30-267): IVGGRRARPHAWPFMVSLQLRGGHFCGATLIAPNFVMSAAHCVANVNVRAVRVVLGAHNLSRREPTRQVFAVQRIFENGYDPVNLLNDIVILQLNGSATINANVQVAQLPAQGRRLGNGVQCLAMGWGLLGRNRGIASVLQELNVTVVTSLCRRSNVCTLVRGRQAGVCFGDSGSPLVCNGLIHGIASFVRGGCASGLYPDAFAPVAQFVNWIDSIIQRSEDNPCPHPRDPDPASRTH
Procedure: as §3

[3] = Plasma protein binding by equilibrium dialysis; format: in vitro ADME; conditions: mouse plasma, 10 μM compound; read-out: PPB (mouse) % bound (converted)
Procedure: Mouse plasma protein binding (PPB) was determined by equilibrium dialysis with 10 μM compound over 4 h at 37 °C. Compound recoveries were determined by HPLC-MS/MS.

LasB S241G = target: T4, LasB S241G (Pseudomonas aeruginosa, UniProt P14756, S241G); test: LasB variant inhibition, culture supernatant: S241G; format: biochemical, P. aeruginosa
T4 construct: endogenous in cells; host or cells: P. aeruginosa clinical CF isolate, culture supernatant
T4 sequence (P14756 198-498 S241G): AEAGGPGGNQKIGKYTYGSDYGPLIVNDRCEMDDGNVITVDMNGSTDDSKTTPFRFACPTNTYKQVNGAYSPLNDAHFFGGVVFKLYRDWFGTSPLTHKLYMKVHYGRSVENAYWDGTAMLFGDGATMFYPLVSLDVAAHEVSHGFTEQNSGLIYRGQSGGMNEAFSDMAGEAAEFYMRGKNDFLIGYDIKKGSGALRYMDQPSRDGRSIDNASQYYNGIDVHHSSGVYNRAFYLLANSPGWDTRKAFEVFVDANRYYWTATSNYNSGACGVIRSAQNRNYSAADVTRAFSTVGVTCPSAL
Excerpt: (§4) Compounds 12 and 16 were discovered as a result of optimizing potency against the LasB protein expressed from the wild-type (WT) reference strain P. aeruginosa PAO1. To understand the relative prevalence of the WT LasB protein versus other variants in clinical respiratory P. aeruginosa strains, the full-length lasB gene was amplified by PCR from 255 clinical isolates (obtained from CF sputum samples). […] Most changes were identified in the mature peptide, however some occurred in the propeptide domain, which could affect LasB processing (marked in italics in Table 4).
as §2, with “For screening of lead compounds, assays were performed in the presence of 0.01% Triton X-100 with a range of inhibitor concentrations from 0.003 to 3.2 μM.” left out

LasB T65I = target: T5, LasB T65I (Pseudomonas aeruginosa, UniProt P14756); test: LasB variant inhibition, culture supernatant: T65I; format: biochemical, P. aeruginosa
T5 construct: endogenous in cells; host or cells: P. aeruginosa clinical CF isolate, culture supernatant
T5 sequence (P14756 198-498, stated change not applied): as the sequence (P14756 198-498) above
Excerpt: as §4
as §2, with “For screening of lead compounds, assays were performed in the presence of 0.01% Triton X-100 with a range of inhibitor concentrations from 0.003 to 3.2 μM.” left out

| Compound | IC50 (purified LasB) | Ki (purified LasB) | Elastin hydrolysis @ 25 μM (% inh) [1] | IC50 (MMP-13) | IC50 [2] | fraction unbound at 4 h, 10 μM [3] | IC50 (LasB S241G) | IC50 (LasB T65I) |
| --- | --- | --- | --- | --- | --- | --- | --- | --- |
| COc1cc2sc(CNC(=O)C3(CC(=O)O)Cc4ccccc4C3)nc2cc1OCCC[N+](C)(C)C [Compound 12] | 0.13 µM | 0.035 µM | 64 % inh | > 100 µM | > 200 µM | 0.24 | 0.221 µM | 0.216 µM |
| COc1cc2sc(CNC(=O)C3(CC(=O)O)Cc4cc(F)c(F)cc4C3)nc2cc1OCCC[N+](C)(CCO)CCO [Compound 16] | 0.08 µM | 0.032 µM | 73 % inh | > 100 µM | > 200 µM | 0.18 | 0.206 µM | 0.182 µM |
